Article PMC12396409, “Screening and hit evaluation of a microbial metabolite library against the pathogenic Plasmodium falciparum and Toxoplasma gondii parasites” (International Journal for Parasitology: Drugs and Drug …, 2025)
Where two headings read alike, the source gives them in different places.

Experiments:
[1] = system: P. falciparum 3D7 parasites; assay: P. falciparum growth inhibition assay, 1-cycle (72 h treatment), SYBR DNA staining (library screen at 2 μg/mL and dose-response); format: cell-based, Plasmodium falciparum
[2] = system: P. falciparum 3D7 parasites; assay: P. falciparum growth inhibition assay, 2-cycle (120 h treatment), delayed-death screen and dose-response; format: cell-based, Plasmodium falciparum
[3] = system: T. gondii RH strain (RH-Tub-eYFP) tachyzoites; assay: microbe, parasite or virus in culture; format: cell-based, Toxoplasma gondii
[4] = Plasmodium falciparum, 3D7, P. falciparum, 72 h, screen at 2 μg/mL, replicate 1, read-out: Pf_72h_%Growth_Rep1
[5] = Plasmodium falciparum, 3D7, P. falciparum, 72 h, screen at 2 μg/mL, replicate 2, read-out: Pf_72h_%Growth_Rep2
[6] = Plasmodium falciparum, 3D7, P. falciparum, 120 h, screen at 2 μg/mL, replicate 1, read-out: Pf_120h_%Growth_Rep1
[7] = Plasmodium falciparum, 3D7, P. falciparum, 120 h, screen at 2 μg/mL, replicate 2, read-out: Pf_120h_%Growth_Rep2
[8] = Toxoplasma gondii, 72 h, T. gondii, 72 h, screen at 2 μg/mL, replicate 1; read-out: Tg_72h_%Growth_Rep1
[9] = Toxoplasma gondii, 72 h, T. gondii, 72 h, screen at 2 μg/mL, replicate 2; read-out: Tg_72h_%Growth_Rep2

## COc1ccc2c3c4n(c2c1)[C@H](C=C(C)C)OOC(C)(C)C[C@@H]4N1C(=O)[C@@H]2CCCN2C(=O)[C@]1(O)[C@H]3O [Verruculogen]
[1]; [4]
  activity at 2 µg/mL: 58.1%
[1]; [5]
  activity at 2 µg/mL: 88.5%
[2]; [6]
  activity at 2 µg/mL: 144%
[2]; [7]
  activity at 2 µg/mL: 80.6%
[3]; Toxoplasma gondii; T. gondii, 72 h, screen at 2 μg/mL, replicate 1; read-out: Tg_72h_%Growth_Rep1
  percent parasite growth at 2 µg/mL: 92.4%
[3]; Toxoplasma gondii; T. gondii, 72 h, screen at 2 μg/mL, replicate 2; read-out: Tg_72h_%Growth_Rep2
  percent parasite growth at 2 µg/mL: 102%

## CN(C)[C@@H]1C(O)=C(C(N)=O)C(=O)[C@@]2(O)C(O)=C3C(=O)c4c(O)ccc(Cl)c4[C@@H](O)[C@H]3C[C@@H]12 [Demeclocycline]
[1]; Plasmodium falciparum, 3D7, 72 h, P. falciparum, 72 h, screen at 2 μg/mL, replicate 1, read-out: Pf_72h_%Growth_Rep1
  activity at 2 µg/mL: 85.8%
[1]; Plasmodium falciparum, 3D7, 72 h, P. falciparum, 72 h, screen at 2 μg/mL, replicate 2, read-out: Pf_72h_%Growth_Rep2
  activity at 2 µg/mL: 87%
[2]; Plasmodium falciparum, 3D7, 120 h, P. falciparum, 120 h, screen at 2 μg/mL, replicate 1, read-out: Pf_120h_%Growth_Rep1
  activity at 2 µg/mL: 101%
[2]; Plasmodium falciparum, 3D7, 120 h, P. falciparum, 120 h, screen at 2 μg/mL, replicate 2, read-out: Pf_120h_%Growth_Rep2
  activity at 2 µg/mL: 94.8%
[3]; [8]
  percent parasite growth at 2 µg/mL: 157%
[3]; [9]
  percent parasite growth at 2 µg/mL: 107%

## COC1C(O)CC(=O)OC(C)CC=CC=CC(O)C(C)CC(CC=O)C1OC1OC(C)C(OC2CC(C)(O)C(OC(=O)CC(C)C)C(C)O2)C(N(C)C)C1O (stereo not drawn) [BIA-L1538]
[1]; P. falciparum 3D7, 72 h, library screen at 2 μg/mL, % growth, replicate 1
  Pf_72h_%Growth_Rep1: 49.92%
[1]; P. falciparum 3D7, 72 h, library screen at 2 μg/mL, % growth, replicate 2
  Pf_72h_%Growth_Rep2: 67.33%
[2]; P. falciparum 3D7, 120 h, library screen at 2 μg/mL, % growth, replicate 1
  Pf_120h_%Growth_Rep1: 5.60%
[2]; P. falciparum 3D7, 120 h, library screen at 2 μg/mL, % growth, replicate 2
  Pf_120h_%Growth_Rep2: 17.51%
[3]; T. gondii RH, 72 h, library screen at 2 μg/mL, % growth, replicate 1
  Tg_72h_%Growth_Rep1: 16.93%
[3]; T. gondii RH, 72 h, library screen at 2 μg/mL, % growth, replicate 2
  Tg_72h_%Growth_Rep2: 20.94%

## Oc1cc(O)cc(O)c1 [BIA-P1379]
[1]; P. falciparum 3D7, 72 h, parasite screen at 2 μg/mL, % growth, replicate 1
  Pf_72h_%Growth_Rep1: 72.55%
[1]; P. falciparum 3D7, 72 h, parasite screen at 2 μg/mL, % growth, replicate 2
  Pf_72h_%Growth_Rep2: 29.88%
[2]; P. falciparum 3D7, 120 h, parasite screen at 2 μg/mL, % growth, replicate 1
  Pf_120h_%Growth_Rep1: 15.44%
[2]; P. falciparum 3D7, 120 h, parasite screen at 2 μg/mL, % growth, replicate 2
  Pf_120h_%Growth_Rep2: 11.00%
[3]; T. gondii, 72 h, parasite screen at 2 μg/mL, % growth, replicate 1
  Tg_72h_%Growth_Rep1: 123.57%
[3]; T. gondii, 72 h, parasite screen at 2 μg/mL, % growth, replicate 2
  Tg_72h_%Growth_Rep2: 91.75%

## C[C@H]1C(=O)N2c3ccccc3[C@@]3(O)C[C@@H]4C(=O)N[C@](C)(c5nc6ccccc6c(=O)n54)N1[C@@H]23 [Fumiquinazoline D]
[1]; Plasmodium falciparum, 3D7, library screen at 2 μg/mL, 72 h, % growth, replicate 1, read-out: Pf_72h_%Growth_Rep1
  activity at 2 µg/mL: 76.9%
[1]; Plasmodium falciparum, 3D7, library screen at 2 μg/mL, 72 h, % growth, replicate 2, read-out: Pf_72h_%Growth_Rep2
  activity at 2 µg/mL: 108%
[2]; Plasmodium falciparum, 3D7, library screen at 2 μg/mL, 120 h, % growth, replicate 1, read-out: Pf_120h_%Growth_Rep1
  activity at 2 µg/mL: 80.2%
[2]; Plasmodium falciparum, 3D7, library screen at 2 μg/mL, 120 h, % growth, replicate 2, read-out: Pf_120h_%Growth_Rep2
  activity at 2 µg/mL: 101%
[3]; Toxoplasma gondii, 72 h, library screen at 2 μg/mL, 72 h, % growth, replicate 1; read-out: Tg_72h_%Growth_Rep1
  percent parasite growth at 2 µg/mL: 124%
[3]; Toxoplasma gondii, 72 h, library screen at 2 μg/mL, 72 h, % growth, replicate 2; read-out: Tg_72h_%Growth_Rep2
  percent parasite growth at 2 µg/mL: 109%

## CC(/C=C/C(=O)NO)=C\[C@@H](C)C(=O)c1ccc(N(C)C)cc1 [trichostatin A, reference compound]
[1]; 2 μg/mL, 72 h, active = ≥80 % growth inhibition
  activity in the screen against P. falciparum: active
[1]; P. falciparum, 72 h, screen at 2 μg/mL, replicate 1
  Pf_72h_%Growth_Rep1: 1.39%
[1]; P. falciparum, 72 h, screen at 2 μg/mL, replicate 2
  Pf_72h_%Growth_Rep2: -9.74%
[2]; P. falciparum, 120 h, screen at 2 μg/mL, replicate 1
  Pf_120h_%Growth_Rep1: 8.88%
[2]; P. falciparum, 120 h, screen at 2 μg/mL, replicate 2
  Pf_120h_%Growth_Rep2: 11.39%
[3]; T. gondii, 72 h, screen at 2 μg/mL, replicate 1
  Tg_72h_%Growth_Rep1: 0.84%
[3]; T. gondii, 72 h, screen at 2 μg/mL, replicate 2
  Tg_72h_%Growth_Rep2: 0.67%

## C=C[C@]1(C)C[C@@H](OC(=O)CSCCN(CC)CC)[C@]2(C)[C@H](C)CC[C@]3(CCC(=O)[C@H]32)[C@@H](C)[C@@H]1O [Tiamulin, reference compound]
[1]; Plasmodium falciparum, 3D7; P. falciparum, 2 μg/mL, 72 h; read-out: 1) Growth (%) at 72 h
  activity at 2 µg/mL: 55%
[1]; [4]
  activity at 2 µg/mL: 61.3%
[1]; [5]
  activity at 2 µg/mL: 48.7%
[1]; Plasmodium falciparum, 3D7, 72 h treatment, mean ± S.D., n ≥ 3, read-out: IC50 (μM), P. falciparum
  IC50: > 1 µM
[2]; 2 μg/mL, criteria: ≥40 % growth at 72 h, ≤20 % growth at 120 h, at least 5-fold
  delayed-death activity in the 120 h screen against P. falciparum: delayed-death activity
[2]; P. falciparum, growth at 72 h / growth at 120 h, 2 μg/mL
  3) Fold change (72 h/120 h): 7.0
[2]; Plasmodium falciparum, 3D7, read-out: IC50, P. falciparum, 120 h dose-response (delayed-death)
  IC50: ~1000 nM
[2]; Plasmodium falciparum, 3D7; P. falciparum, 2 μg/mL, 120 h; read-out: 2) Growth (%) at 120 h
  activity at 2 µg/mL: 7.81%
[2]; [6]
  activity at 2 µg/mL: 6.75%
[2]; [7]
  activity at 2 µg/mL: 8.86%
[3]; [8]
  percent parasite growth at 2 µg/mL: 55.8%
[3]; [9]
  percent parasite growth at 2 µg/mL: 29.4%
[3]; Toxoplasma gondii; RH strain, 72 h, mean ± S.D., n ≥ 3; read-out: IC50 (μM), T. gondii (converted)
  IC50: > 1 µM
[3]; library screen at 2 μg/mL, RH strain, 72 h
  Screen (T. gondii): I
